Molecular target: T1, human DGAT1 (Homo sapiens, UniProt O75907)
T1 construct: made in house; host or cells: sf9 insect cells (baculovirus), membrane fraction
T1 sequence (O75907 1-488): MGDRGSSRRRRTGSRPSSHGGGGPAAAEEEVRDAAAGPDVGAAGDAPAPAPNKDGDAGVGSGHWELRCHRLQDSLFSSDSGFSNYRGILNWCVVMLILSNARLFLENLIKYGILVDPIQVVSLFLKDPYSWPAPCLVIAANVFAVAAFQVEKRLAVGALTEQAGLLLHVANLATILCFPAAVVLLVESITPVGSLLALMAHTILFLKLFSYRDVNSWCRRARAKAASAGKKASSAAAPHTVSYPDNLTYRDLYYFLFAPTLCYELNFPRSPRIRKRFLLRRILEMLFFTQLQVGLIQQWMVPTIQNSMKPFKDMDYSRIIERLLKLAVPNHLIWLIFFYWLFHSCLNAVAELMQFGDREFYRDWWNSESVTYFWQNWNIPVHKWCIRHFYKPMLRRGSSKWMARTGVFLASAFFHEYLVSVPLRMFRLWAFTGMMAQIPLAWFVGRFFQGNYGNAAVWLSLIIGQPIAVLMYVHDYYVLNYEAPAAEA
Assay: Human Enzyme Assay (DGAT1 inhibition, 14C oleoyl CoA incorporation into triolein)
Type: biochemical
Conditions: human DGAT1 expressed in insect cell (sf9) membranes; 30 μM 14C oleoyl coenzyme A, 30 minutes at room temperature
Description: As indicated above, all of the compounds, and their corresponding pharmaceutically-acceptable salts, are useful in inhibiting DGAT1.
The in vitro assay to identify DGAT1 inhibitors uses human DGAT1 expressed in insect cell membranes as the enzyme source (Proc. Natl. Acad. Sci. 1998, 95, 13018-13023). Briefly, sf9 cells were infected with recombinant baculovirus containing human DGAT1 coding sequences and harvested after 48 h. Cells were lysed by sonication and membranes isolated by centrifuging at 28000 rpm for 1 h at 4° C. on a 41% sucrose gradient. The membrane fraction at the interphase was collected, washed, and stored in liquid nitrogen.
DGAT1 activity was assayed by a modification of the method described by Coleman (Methods in Enzymology 1992, 209, 98-102). Compound at 1-10 μM was incubated with 0.4 μg membrane protein, 5 mM MgCl2, and 10 0 μM 1,2 dioleoyl-sn-glycerol in a total assay volume of 200 μl in plastic tubes. The reaction was started by adding ^14C oleoyl coenzyme A (30 μM final concentration) and incubated at room temperature for 30 minutes. The reaction was stopped by adding 1.5 mL 2-propanol:heptane:water (80:20:2). Radioactive triolein product was separated into the organic phase by adding 1 mL heptane and 0.5 mL 0.1 M carbonate buffer pH 9.5. DGAT1 activity was quantified by counting aliquots of the upper heptane layer by liquid scintillography.

## COC(=O)C[C@H]1CC[C@H](c2ccc(NC(=O)c3coc(Nc4ccc(F)c(F)c4)n3)cc2)CC1 [Example 2, Methyl trans-2-{4-[4-({2-[(3,4-difluorophenyl)amino]-1,3-oxazole-4-carbonyl}amino)phenyl]cyclohexyl}acetate]
  IC50: 32 µM

Reference: patent US20100160397A1, “OXAZOLE DERIVATIVES AND THEIR USE IN THE TREATMENT OF DIABETES AND OBESITY” (priority 2006, published 2010)
